# Data taken from patent publication US11873290B2, “Pyridazinone compounds and uses thereof” (Edgewise Therapeutics, Inc., priority 2018, dated 2024).
# pIC50: −log10 of the molar value.
# Molecular target: skeletal myofibrils (myosin ATPase activity)
# Assay: Skeletal Myofibril ATPase Assay
# Type: biochemical
# Conditions: PK-LDH coupled, absorbance at 340 nm
# Experimental: Overview: Myosin ATPase activity is assessed by using a coupled reaction system, in which ADP generated by the myosin ATPase function is coupled to the disappearance of NADH through the pyruvate kinase/lactate dehydrogenase (PK-LDH) system. Myosin ATPase activity produces ADP, which is used as a substrate for PK to produce pyruvate and regenerate ATP. The pyruvate is then used as a substrate by LDH to oxidize NADH to NAD+. The rate of the reaction is monitored through the time-dependent disappearance of NADH using absorbance at 340 nm. Inhibition of ATPase activity by the assayed compounds is indicated by a reduced rate of NADH loss, relative to vehicle-treated controls, over the experimental time window. To assess the selectivity of the assayed compounds for skeletal myofibrils, the compounds are counter-screened in cardiac myofibrils.
# Materials: The following stock solutions and reagents were used in the Skeletal Myofibril ATPase Assay:
# Stock Solutions of pCa buffer. Combine PIPES, CaCl2, and EGTA solutions with 70 mL of water. Adjust pH to 7.0 and bring final volume to 100 mL.
# Skeletal Myofibril ATPase Assay Procedure: BSA, ATP, NADH, PEP, and DTT solutions were thawed at room temperature, then transferred to ice. Pellet-frozen myofibrils (approximately twice the required volume) were transferred into a sufficiently large tube and capped. Myofibrils were thawed by rolling in a water bath for approximately 15 min at room temperature and cooled on ice. Buffers A and B were prepared by adjusting volumes as necessary for required number of wells and stored on ice. 0.5 μL of the compounds to be assayed were added into wells of a 384-well plate. Buffers A and B were mixed by inversion immediately prior to use, then 25 μL of each was dispensed using a Multidrop dispenser (Buffer A first, then Buffer B). The absorbance within the wells was measured at 340 nm, using a kinetic protocol in which the wells are read every 1.5-2 min for 1 h. The reaction rate was qualitatively assessed by subtracting the minimum absorbance value from the maximum value for each well, using either the SoftMax Pro plate reader software or a spreadsheet program such as Excel. Using GraphPad Prism 8.0, the data was normalized, with 100% activity defined as the absorbance change in the 1% DMSO vehicle wells and 0% assigned to no change in absorbance over the course of the experiment. The normalized data were fit to a variable-slope four-parameter logistic model, constraining the bottom to be 0 or greater. Compounds of Table 1 to 4 were tested and results of the assay appear in Table 5 herein. A=IC50 is less than or equal to 10 μM; B=IC50 is greater than 10 μM and less than 100 μM; C=IC50 is greater than 100 μM; […].
row,SMILES,pIC50
1,"O=c1ccc(-c2cnc(OCC(F)(F)F)nc2)nn1Cc1cncc(Cl)c1 [Compound 1, 2-((5-chloropyridin-3-yl)methyl)-6-(2-(2,2,2-trifluoroethoxy)pyrimidin-5-yl)pyridazine-3(2H)-one]",> 5.00
2,O=c1ccc(-c2ccc(OC(F)F)nc2)nn1Cc1cncc(Cl)c1 [Compound 2],> 5.00
3,"O=c1ccc(-c2cnc(OCC(F)(F)F)nc2)nn1Cc1cncc(F)c1 [Compound 6, 2-((5-fluoropyridin-3-yl)methyl)-6-(2-(2,2,2-trifluoroethoxy)pyrimidin-5-yl)pyridazine-3(2H)-one]",> 5.00
4,O=c1ccc(-c2ccc(OC(F)F)nc2)nn1Cc1cncc(F)c1 [Compound 9],> 5.00
5,O=c1ccc(-c2ccc(OC(F)F)nc2)nn1Cc1cccnc1 [Compound 10],4.00 to 5.00
6,O=c1ccc(-c2ccc(OC(F)F)nc2)nn1Cc1nnc(-c2ccc(F)cc2)s1 [Compound 17],> 5.00
7,O=c1ccc(-c2ccc(OC(F)F)nc2)nn1Cc1nnc(-c2ccccc2)s1 [Compound 22],> 5.00
8,"O=c1ccc(-c2ccc(OC(F)F)nc2)nn1Cc1cn[nH]c1-c1ccccc1 [Compound 23, 6-(6-(difluoromethoxy)pyridin-3-yl)-2-((5-phenyl-1H-pyrazol-4-yl)methyl)pyridazin-3(2H)-one]",< 4.00
9,"O=c1ccc(-c2ccc(OC(F)F)nc2)nn1Cc1ocnc1-c1ccccc1 [Compound 24, 6-(6-(difluoromethoxy)pyridin-3-yl)-2-((4-phenyloxazol-5-yl)methyl)pyridazin-3(2H)-one]",< 4.00
10,"O=c1ccc(-c2ccc(OC(F)F)nc2)nn1Cc1[nH]ncc1-c1ccccc1 [Compound 25, 6-(6-(difluoromethoxy)pyridin-3-yl)-2-((4-phenyl-1H-pyrazol-5-yl)methyl) pyridazin-3(2H)-one]",< 4.00
11,"O=c1ccc(-c2cnc(OCC(F)(F)F)nc2)nn1Cc1cc(C(F)F)no1 [Compound 26, 2-((3-(difluoromethyl)isoxazol-5-yl)methyl)-6-(2-(2,2,2-trifluoroethoxy)pyrimidin-5-yl)pyridazin-3(2H)-one]",> 5.00
12,"O=c1ccc(-c2cnc(OCC(F)(F)F)nc2)nn1Cc1cc(-c2ccccc2)no1 [Compound 27, 2-((3-phenylisoxazol-5-yl)methyl)-6-(2-(2,2,2-trifluoroethoxy)pyrimidin-5-yl)pyridazin-3(2H)-one]",> 5.00
13,"CC1CCCN1c1ncc(-c2ccc(=O)n(Cc3cncc(F)c3)n2)cn1 (stereo not drawn) [Compound 28, 2-((5-fluoropyridin-3-yl)methyl)-6-(2-(2-methylpyrrolidin-l-yl)pyrimidin-5-yl)pyridazin-3(2H)-one]",> 5.00
14,"O=c1ccc(-c2cnc(OCC(F)(F)F)nc2)nn1Cc1cc(-c2ccccn2)no1 [Compound 30, 2-((3-(pyridin-2-yl)isoxazol-5-yl)methyl)-6-(2-(2,2,2-trifluoroethoxy)pyrimidin-5-yl)pyridazin-3(2H)-one]",> 5.00
15,"O=c1ccc(-c2cnc(OCC(F)(F)F)nc2)nn1Cc1cc(C2CC2)no1 [Compound 31, 2-((3-cyclopropylisoxazol-5-yl)methyl)-6-(2-(2,2,2-trifluoroethoxy)pyrimidin-5-yl)pyridazin-3(2H)-one]",> 5.00
16,"NC(=O)c1cc(Cn2nc(-c3cnc(OCC(F)(F)F)nc3)ccc2=O)on1 [Compound 32, 5-((6-oxo-3-(2-(2,2,2-trifluoroethoxy)pyrimidin-5-yl)pyridazin-1(6H)-yl)methyl)isoxazole-3-carboxamide]",> 5.00
17,"CC(=O)c1cc(Cn2nc(-c3cnc(OCC(F)(F)F)nc3)ccc2=O)on1 [Compound 33, 2-((3-acetylisoxazol-5-yl)methyl)-6-(2-(2,2,2-trifluoroethoxy)pyrimidin-5-yl)pyridazin-3(2H)-one]",> 5.00

row,SMILES,pIC50
1,"Cc1cnoc1Cn1nc(-c2cnc(OCC(F)(F)F)nc2)ccc1=O [Compound 34, 2-((4-methylisoxazol-5-yl)methyl)-6-(2-(2,2,2-trifluoroethoxy)pyrimidin-5-yl)pyridazin-3(2H)-one]",> 5.00
2,"CCOC(=O)c1cc(Cn2nc(-c3cnc(OCC(F)(F)F)nc3)ccc2=O)on1 [Compound 37, ethyl 5-((6-oxo-3-(2-(2,2,2-trifluoroethoxy)pyrimidin-5-yl)pyridazin-1(6H)-yl)methyl) isoxazole-3-carboxylate]",> 5.00
3,"O=c1ccc(-c2cnc(OCC(F)(F)F)nc2)nn1Cc1nnc(-c2ccccn2)s1 [Compound 38, 2-((5-(pyridin-2-yl)-1,3,4-thiadiazol-2-yl)methyl)-6-(2-(2,2,2-trifluoroethoxy)pyrimidin-5-yl)pyridazin-3(2H)-one]",> 5.00
4,"Cc1c(-c2ccccc2)noc1Cn1nc(-c2cnc(OCC(F)(F)F)nc2)ccc1=O [Compound 39, 2-((4-methyl-3-phenylisoxazol-5-yl)methyl)-6-(2-(2,2,2-trifluoroethoxy)pyrimidin-5-yl)pyridazin-3(2H)-one]",> 5.00
5,"O=c1ccc(-c2cnc(OCC(F)(F)F)nc2)nn1Cc1nnc(-c2cccnc2)s1 [Compound 40, 2-((5-(pyridin-3-yl)-1,3,4-thiadiazol-2-yl)methyl)-6-(2-(2,2,2-trifluoroethoxy)pyrimidin-5-yl)pyridazin-3(2H)-one]",> 5.00
6,"Cc1ccc(Cn2nc(-c3cnc(OCC(F)(F)F)nc3)ccc2=O)nn1 [Compound 41, 2-((6-methylpyridazin-3-yl)methyl)-6-(2-(2,2,2-trifluoroethoxy)pyrimidin-5-yl)pyridazin-3(2H)-one]",> 5.00
7,"O=c1ccc(-c2cnc(OCC(F)(F)F)nc2)nn1Cc1ccnc(O)c1 [Compound 42, 2-((2-hydroxypyridin-4-yl)methyl)-6-(2-(2,2,2-trifluoroethoxy)pyrimidin-5-yl)pyridazin-3(2H)-one]",4.00 to 5.00
8,"O=c1ccc(-c2cnc(OCC(F)(F)F)nc2)nn1Cc1cc(CO)no1 [Compound 43, 2-((3-(hydroxymethyl)isoxazol-5-yl)methyl)-6-(2-(2,2,2-trifluoroethoxy)pyrimidin-5-yl)pyridazin-3(2H)-one]",4.00 to 5.00
9,"O=c1ccc(-c2cnc(OCC(F)(F)F)nc2)nn1Cc1nnc(-c2ccnc(O)c2)s1 [Compound 44, 2-((5-(2-hydroxypyridin-4-yl)-1,3,4-thiadiazol-2-yl)methyl)-6-(2-(2,2,2-trifluoroethoxy)pyrimidin-5-yl)pyridazin-3(2H)-one]",4.00 to 5.00
10,"O=c1ccc(-c2cnc(OCC(F)(F)F)nc2)nn1Cc1nnc(-c2ccc(O)nc2)s1 [Compound 45, 2-((5-(6-hydroxypyridin-3-yl)-1,3,4-thiadiazol-2-yl)methyl)-6-(2-(2,2,2-trifluoroethoxy)pyrimidi-5-yl)pyridazin-3(2H)-one]",4.00 to 5.00
11,"O=c1ccc(-c2cnc(OCC(F)(F)F)nc2)nn1Cc1cccc(O)n1 [Compound 46, 2-((6-hydroxypyridin-2-yl)methyl)-6-(2-(2,2,2-trifluoroethoxy)pyrimidin-5-yl)pyridazin-3(2H)-one]",< 4.00
12,"O=c1ccc(-c2cnc(OCC(F)(F)F)nc2)nn1Cc1cccnc1O [Compound 47, 2-((2-hydroxypyridin-3-yl)methyl)-6-(2-(2,2,2-trifluoroethoxy)pyrimidin-5-yl)pyridazin-3(2H)-one]",< 4.00
13,"Cc1noc(Cn2nc(-c3cnc(OCC(F)(F)F)nc3)ccc2=O)c1C [Compound 49, 2-((3,4-dimethylisoxazol-5-yl)methyl)-6-(2-(2,2,2-trifluoroethoxy)pyrimidin-5-yl)pyridazin-3(2H)-one]",< 4.00
14,"CN(CC(F)(F)F)c1ncc(-c2ccc(=O)n(Cc3cncc(F)c3)n2)cn1 [Compound 50, 2-((5-fluoropyridin-3-yl)methyl)-6-(2-(methyl(2,2,2-trifluoroethyl)amino)pyrimidin-5-yl)pyridazin-3(2H)-one]",> 5.00
15,"N#Cc1cncc(Cn2nc(-c3cnc(OCC(F)(F)F)nc3)ccc2=O)c1 [Compound 51, 5-((6-oxo-3-(2-(2,2,2-trifluoroethoxy)pyrimidin-5-yl)pyridazin-1(6H)-yl)methyl)nicotinonitrile]",> 5.00
16,"Cc1ncc(Cn2nc(-c3cnc(OCC(F)(F)F)nc3)ccc2=O)cc1F [Compound 52, 2-((5-fluoro-6-methylpyridin-3-yl)methyl)-6-(2-(2,2,2-trifluoroethoxy)pyrimidin-5-yl)pyridazin-3(2H)-one]",> 5.00
17,"O=c1ccc(-c2cnc(OCC(F)(F)F)nc2)nn1Cc1cnco1 [Compound 53, 2-(oxazol-5-ylmethyl)-6-(2-(2,2,2,- trifluoroethoxy)pyrimidin-5-yl)pyridazin-3(2H)-one]",> 5.00
